Data taken from US20190008961A1, “COMPOUNDS AND METHODS FOR INCREASING TUMOR INFILTRATION BY IMMUNE CELLS” (THE BROAD INSTITUTE, INC., priority 2016, published 2019).

What was measured:
[1] = test system: MSC cells; assay: RSL3 toxicity in the presence of inhibitors of arachidonic acid metabolic enzymes; type: cell-based; settings: for RSL3 mediated cell death in MSCs with soluble epoxide hydrolase inhibitors: FIG. 14, TPPU 20 and 80 μM, AUDA and butyl-AUDA 80 μM; for effect on toxicity of RSL3: increasing amounts of RSL3, FIG. 13
From the text: To investigate the role of RSL3's effects on MSC toxicity, MDA-MSC co-cultures were contacted by compounds that were known inhibitors of arachidonic acid metabolic enzymes.

[2] = test system: MSCs and WI-38 fibroblasts; assay: viability, Cell Titer Glo, 72 hours; type: cell-based, human
Method: Viability measurements were made to determine whether RSL3 is toxic to MDA cells, MSCs or both. Viability was assessed by seeding cells into 384-well opaque-bottom plates (Corning, Corning N.Y. catalog #3570) then treating them 24 hours later with varying concentrations of RSL3 (added using the pin-transfer instrument CyBi-Well Vario, Cybio, Woburn Mass.) for an additional period of 72 hours. Viable cells remaining after the treatment were quantified using the Cell Titer Glo reagent (Promega, Madison Wis. catalog #G7570) that measures cellular ATP content.

[3] = plasma stability, mouse; type: in vitro ADME
Method: (§1) Plasma Stability. Plasma stability was determined at 37° C. at 5 hours in both human and mouse plasma. Each compound was prepared in duplicate at 5 μM in plasma diluted 50/50 (v/v) with PBS pH 7.4 (0.95% acetonitrile, 0.05% DMSO). Compounds were incubated at 37° C. for 5 hours with a 350-rpm orbital shake with time points taken at 0 hours and 5 hours. Samples were analyzed by UPLC-MS (Waters, Milford, Mass.) with compounds detected by SIR detection on a single quadrupole mass spectrometer.

[4] = plasma protein binding by equilibrium dialysis, human; type: in vitro ADME; settings: 5 μM
Method: Plasma Protein Binding. Plasma protein binding was determined by equilibrium dialysis using the Rapid Equilibrium Dialysis (RED) device (Pierce Biotechnology, Rockford, Ill.) for both human and mouse plasma. Each compound was prepared in duplicate at 5μM in plasma (0.95% acetonitrile, 0.05% DMSO) and added to one side of the membrane (200 μL) with PBS pH 7.4 added to the other side (350 μL). Compounds were incubated at 37° C. for 5 hours with a 350-rpm orbital shake. After incubation, samples were analyzed by UPLC-MS (Waters, Milford, Mass.) with compounds detected by SIR detection on a single quadrupole mass spectrometer.

[5] = microsomal stability, mouse; type: in vitro ADME
Method: (§2) Microsomal Stability. Microsomal stability was determined at 37° C. at 60 minutes in both human and mouse microsomes. Each compound was prepared in duplicate at 1 μM with 0.3 mg/mL microsomes in PBS pH 7.4 (1% DMSO). Compounds were incubated at 37° C. for 60 minutes with a 350-rpm orbital shake with time points taken at 0 minutes and 60 minutes. Samples were analyzed by UPLC-MS (Waters, Milford, Mass.) with compounds detected by SIR detection on a single quadrupole mass spectrometer.

[6] = microsomal stability, human; type: in vitro ADME
Method: as §2

[7] = plasma stability, human; type: in vitro ADME
Method: as §1

[8] = test system: MSC-shGPX cells; assay: Zileuton rescue of viability in GPX4 knockdown MSCs; type: cell-based; settings: increasing Zileuton
Method: In a knockdown GPX4 experiment in MSCs, increasing amounts of Zileuton were added to MSC-shLacZ cells as a control and to MSC-shGPX cells growing in 384-well plates and their viability was measured after 5 days of growth (see FIG. 15).

Structure (SMILES): O=C(O)CCCCCCCCCCCNC(=O)NC12CC3CC(CC(C3)C1)C2 [AUDA]
- RSL3 mediated cell death in MSCs with soluble epoxide hydrolase inhibitors [1]: increase in RSL3 mediated cell death

Structure (SMILES): COc1ccc2c(c1)c(CC(=O)O)c(C)n2C(=O)c1ccc(Cl)cc1 [Indomethacin]
- effect on toxicity of RSL3 [1]: little impact

Structure (SMILES): CC(C)c1ccc2c(c1)c(SC(C)(C)C)c(CC(C)(C)C(=O)O)n2Cc1ccc(Cl)cc1 [MK886]
- effect on toxicity of RSL3 [1]: lessened the toxicity of RSL3

Structure (SMILES): COc1ccc(N(C(=O)CCl)C(C(=O)NCCc2ccccc2)c2cccs2)cc1Cl (stereo not shown) [ML162]
- stromal cell death, potency relative to RSL3 [2]: lower potencies than that of RSL3

Structure (SMILES): c1ccc2c(c1)SCc1c-2[nH]c2ccccc12 [PD146176]
- effect on toxicity of RSL3 [1]: lessened the toxicity of RSL3

Structure (SMILES): COC(=O)c1ccc([C@@H]2c3[nH]c4ccccc4c3C[C@@H](C(=O)OC)N2C(=O)CCl)cc1 [RSL3]
- Plasma Stability (5 h) ([3]; Mouse, 37° C., 5 μM): <1%
- stability in murine plasma, in words ([3]; murine): little stability
- Plasma Binding Protein (5 h) [4]: 98.2%
- Liver Microsome Stability (1 h) ([5]; Mouse, 1 μM, 0.3 mg/mL microsomes): <1%
- stability in murine liver microsomal assay, in words ([5]; murine): little stability
- Liver Microsome Stability (1 h) ([6]; Human, 1 μM, 0.3 mg/mL microsomes): 32.7%
- stability in human liver microsomal assay, in words ([6]; human): modest stability
- potency in inhibiting viability of stromal cells compared with MDA cancer cells or HUVEC endothelial cells ([2]; 72 hours treatment): > 10 fold
- Plasma Stability (5 h) ([7]; Human, 37° C., 5 μM): 47%
- stability in human plasma, in words ([7]; human): modest stability

Structure (SMILES): CCC(=O)N1CCC(NC(=O)Nc2ccc(OC(F)(F)F)cc2)CC1 [TPPU]
- RSL3 mediated cell death in MSCs with soluble epoxide hydrolase inhibitors [1]: increase in RSL3 mediated cell death
- effect on toxicity of RSL3 [1]: enhanced RSL3 effects

Structure (SMILES): CC(c1cc2ccccc2s1)N(O)C(N)=O (stereo not shown) [Zileuton]
- amount of MSC-shGPX cells that survived ([8]; 5 days of growth): increased with higher amounts of Zileuton
- viability of control MSC-shLacZ cells ([8]; FIG. 15): no effect
- rescue of stromal cells from death by GPX4 inhibition [1]: rescued
- effect on toxicity of RSL3 [1]: lessened the toxicity of RSL3

Structure (SMILES): CCCCS(=N)(=O)CCC(N)C(=O)O (stereo not shown) [buthionine sulfoximine, S-n-butyl homocysteine sulfoximine]
- stromal cell death, potency relative to RSL3 [2]: lower potencies than that of RSL3

Structure (SMILES): CCCCOC(=O)CCCCCCCCCCCNC(=O)NC12C[C@H]3C[C@@H](C1)C[C@@H](C2)C3 [butyl-AUDA]
- RSL3 mediated cell death in MSCs with soluble epoxide hydrolase inhibitors [1]: increase in RSL3 mediated cell death

Structure (SMILES): COc1cccc2c1C(=O)c1c(O)c3c(c(O)c1C2=O)C[C@@](O)(C(=O)CO)C[C@@H]3O[C@H]1C[C@H](N)[C@H](O)[C@H](C)O1 [doxorubicin]
- sensitivity of MSCs and fibroblasts to the drug ([2]; viability, FIG. 4B): did not show enhanced sensitivity

Structure (SMILES): CCOC(=O)c1ccc(NC2CCCCC2)c(N)c1 [ferrostatin]
- rescue of stromal cells from death by GPX4 inhibition [1]: rescued
